The values that follow come from ChEMBL document CHEMBL4422646, “Synthesis and biological evaluation of 3-amino-, 3-alkoxy- and 3-aryloxy-6-(hetero)arylpyridazines as potent antitumor agents” (Bioorg Med Chem Lett, 2019).

Broadly, the IC50 is the concentration at which inhibition is half-maximal.

The structures appear in SMILES notation. Where only a bound is given, the exact number is not on record here.

Series [1] relates to HCT-116. Nature of the series: Antiproliferative activity against human HCT116 cells at 0.1 to 25 uM after 48 hrs by Hoechst 33342 staining-based assay relative to control. In kind it is functional.
Series [2] has as its system Huh-7. Nature of the series: Antiproliferative activity against human HuH7 cells at 0.1 to 25 uM after 48 hrs by Hoechst 33342 staining-based assay relative to control. It is filed as functional.
Series [3] concerns HaCaT. Nature of the series: Antiproliferative activity against human HaCaT cells at 0.1 to 25 uM after 48 hrs by Hoechst 33342 staining-based assay relative to control. In kind it is cell-based.
For series [4], the system named is MDA-MB-231. Nature of the series: Antiproliferative activity against human MDA-MB-231 cells at 0.1 to 25 uM after 48 hrs by Hoechst 33342 staining-based assay relative to control. It is filed as functional.
Series [5] has as its system HCT-116. Nature of the series: Antiproliferative activity against human HCT116 cells after 48 hrs by Hoechst 33342 staining-based assay. In kind it is functional, cell-based. As to conditions: HCT-116, 48 h.
Series [6] has as its system PC-3. Nature of the series: Antiproliferative activity against human PC3 cells at 0.1 to 25 uM after 48 hrs by Hoechst 33342 staining-based assay relative to control. In kind it is functional.
The test system of series [7] is HaCaT. Nature of the series: Antiproliferative activity against human HaCaT cells after 48 hrs by Hoechst 33342 staining-based assay. It is filed as cell-based.
Series [8] deals with MDA-MB-231. Nature of the series: Antiproliferative activity against human MDA-MB-231 cells after 48 hrs by Hoechst 33342 staining-based assay. In kind it is functional, cell-based. As to conditions: MDA-MB-231, 48 h.
The subject of series [9] is PC-3. Nature of the series: Antiproliferative activity against human PC3 cells after 48 hrs by Hoechst 33342 staining-based assay. It is filed as functional, cell-based. As to conditions: PC-3, 48 h.
Series [10] concerns Huh-7. Nature of the series: Antiproliferative activity against human HuH7 cells after 48 hrs by Hoechst 33342 staining-based assay. In kind it is functional, cell-based. As to conditions: Huh-7, 48 h.
Series [11] deals with Fibroblast. Nature of the series: Antiproliferative activity against human fibroblast cells at 0.1 to 25 uM after 48 hrs by Hoechst 33342 staining-based assay relative to control. It is filed as cell-based.
Series [12] deals with Fibroblast. Nature of the series: Antiproliferative activity against human fibroblast cells after 48 hrs by Hoechst 33342 staining-based assay. In kind it is cell-based.
Series [13] relates to NCI-H727. Nature of the series: Antiproliferative activity against human NCI-H727 cells after 48 hrs by Hoechst 33342 staining-based assay. As to conditions: NCI-H727, 48 h. In kind it is functional, cell-based.
In series [14] the test system is NCI-H727. Nature of the series: Antiproliferative activity against human NCI-H727 cells at 0.1 to 25 uM after 48 hrs by Hoechst 33342 staining-based assay relative to control. In kind it is functional.
For another series, the system named is Caco-2. Nature of the series: Antiproliferative activity against human Caco2 cells after 48 hrs by Hoechst 33342 staining-based assay. In kind it is functional, cell-based. As to conditions: Caco-2, 48 h.

With `CC(=O)O[C@H]1C(=O)[C@@]2(C)[C@H]([C@H](OC(=O)c3ccccc3)[C@]3(O)C[C@H](OC(=O)[C@H](O)[C@@H](NC(=O)c4ccccc4)c4ccccc4)C(C)=C1C3(C)C)[C@]1(OC(C)=O)CO[C@@H]1C[C@@H]2O` [PACLITAXEL], the Activity with HCT-116 [1] is 90%; in the series on Huh-7 [2], 50%; with HaCaT [3], 70%; in the series with MDA-MB-231 [4], 60%; with PC-3 [6] it was 60%; in the series on Fibroblast [11], 30%. Further, the IC50 is under 0.001 µM in the series with HCT-116 [5]; 0.002 µM in the series on HaCaT [7]; 0.06 µM in the series with MDA-MB-231 [8]; under 0.001 µM in the series with PC-3 [9]; 0.012 µM in the series on Huh-7 [10]; under 0.001 µM with Fibroblast [12].
Take `CCOC(=O)c1cccc(-c2ccc(N(CC)CC)nn2)c1`: the IC50 in the series with NCI-H727 [13] was 30 µM; with HCT-116 [5], over 25 µM; in the series on HaCaT [7], over 25 µM; with MDA-MB-231 [8], over 25 µM; in the series with PC-3 [9], over 25 µM; in the series with Huh-7 [10] it was over 25 µM. Besides, the IC50 in the series on Caco-2 and in the series on Fibroblast [12] was over 25 µM throughout. The molecule further came in with an Activity in the series with NCI-H727 [14] of 40%.
Take `FC(F)(F)c1cccc(-c2ccc(N3CCCC3)nn2)c1`: the IC50 in the series on NCI-H727 [13] was over 25 µM; in the series with HCT-116 [5] it was over 25 µM; with HaCaT [7] it was over 25 µM; in the series on MDA-MB-231 [8], over 25 µM; with PC-3 [9], over 25 µM; in the series with Huh-7 [10], 30 µM. Moreover, the figures for the IC50 with Caco-2 and in the series with Fibroblast [12] were 50 µM and over 25 µM, respectively. The same molecule yielded an Activity in the series on Huh-7 [2] of 75%.
As to `CN1CCN(c2ccc(-c3cccc(C(F)(F)F)c3)nn2)CC1`, the IC50 with NCI-H727 [13] is over 25 µM; in the series with HCT-116 [5] it was over 25 µM; in the series with HaCaT [7], over 25 µM; in the series with MDA-MB-231 [8] it was over 25 µM; in the series on PC-3 [9], over 25 µM; with Huh-7 [10] it was 30 µM. Besides, the IC50 in the series with Caco-2 was 50 µM; in the series on Fibroblast [12], over 25 µM. The Activity in the series on Huh-7 [2] was 75%.
Consider `CC(=O)c1ccc(-c2ccc(N3CCCC3)nn2)cc1`, for which the IC50 is over 25 µM in the series on NCI-H727 [13]; over 25 µM in the series with HCT-116 [5]; over 25 µM with HaCaT [7]; over 25 µM in the series on MDA-MB-231 [8]; over 25 µM in the series with PC-3 [9]; 30 µM in the series on Huh-7 [10]. Moreover, the IC50 is 50 µM in the series on Caco-2 and over 25 µM in the series on Fibroblast [12]. The Activity in the series with Huh-7 [2] is 75%.
Turning to `COC(=O)c1cccc(-c2ccc(-n3cccc3)nn2)c1`, the IC50 is over 25 µM in the series with NCI-H727 [13]; over 25 µM in the series with HCT-116 [5]; over 25 µM in the series with HaCaT [7]; over 25 µM in the series with MDA-MB-231 [8]; over 25 µM in the series on PC-3 [9]; 30 µM with Huh-7 [10]. For the same molecule, the IC50 is 50 µM in the series on Caco-2 and over 25 µM with Fibroblast [12]. The molecule further returned an Activity with Huh-7 [2] of 75%.
As for `FC(F)(F)c1cccc(-c2ccc(Oc3ccccc3)nn2)c1`, the IC50 in the series on NCI-H727 [13], with HCT-116 [5], in the series on HaCaT [7], with MDA-MB-231 [8], in the series on PC-3 [9] and in the series on Huh-7 [10] was over 25 µM in each case. The IC50 in the series with Caco-2 and in the series with Fibroblast [12] was over 25 µM each time.
`c1ccc(-c2ccc(N3CCOCC3)nn2)cc1`: the IC50 in the series with NCI-H727 [13], with HCT-116 [5], in the series on HaCaT [7], in the series on MDA-MB-231 [8], with PC-3 [9] and with Huh-7 [10] was over 25 µM in each case. Moreover, the IC50 with Caco-2 and with Fibroblast [12] was over 25 µM throughout.
For `COc1ccc(Nc2ccc(-c3ccccc3)nn2)cc1`, the IC50 was over 25 µM with NCI-H727 [13]; over 25 µM with HCT-116 [5]; over 25 µM with HaCaT [7]; over 25 µM in the series on MDA-MB-231 [8]; over 25 µM in the series with PC-3 [9]; 30 µM with Huh-7 [10]. Besides, the IC50 with Caco-2 was 50 µM; with Fibroblast [12], over 25 µM. Also, the Activity in the series on Huh-7 [2] came to 75%.
Turning to `Cc1ccc(-c2ccc(N3CCN(c4ccccc4)CC3)nn2)cc1`, the IC50 with NCI-H727 [13] was over 25 µM; in the series on HCT-116 [5], over 25 µM; in the series with HaCaT [7], over 25 µM; with MDA-MB-231 [8], over 25 µM; in the series with PC-3 [9], over 25 µM; in the series with Huh-7 [10] it was 30 µM. Moreover, the IC50 in the series on Caco-2 was 50 µM; with Fibroblast [12], over 25 µM. Also, in the series on Huh-7 [2], the Activity is 75%.
For `CC[C@H](CO)Nc1nc(NCc2ccccc2)c2ncn(C(C)C)c2n1` [SELICICLIB], the Activity in the series on HCT-116 [1] worked out at 100%; in the series with Huh-7 [2], 90%; in the series on HaCaT [3] it was 80%; with MDA-MB-231 [4], 80%; in the series on PC-3 [6], 8%; with NCI-H727 [14], 40%. Moreover, in the series on Fibroblast [11], the Activity was 40%. Further, the IC50 in the series with HCT-116 [5] amounted to 9 µM; in the series with HaCaT [7] it was 12 µM; in the series on PC-3 [9], 12 µM; with Huh-7 [10], 20 µM; in the series on Fibroblast [12], 12 µM.
For `CCCCOc1ccc(-c2cccc(C#N)c2)nn1`, the IC50 in the series on NCI-H727 [13], in the series on HCT-116 [5], with HaCaT [7], with MDA-MB-231 [8], in the series on PC-3 [9] and in the series on Huh-7 [10] was over 25 µM throughout. Further, the IC50 in the series with Caco-2 and in the series on Fibroblast [12] was over 25 µM in each case.
In the case of `FC(F)(F)c1cccc(-c2ccc(N3CCOCC3)nn2)c1`, the IC50 in the series on NCI-H727 [13], in the series on HCT-116 [5], in the series on HaCaT [7], with MDA-MB-231 [8], in the series on PC-3 [9] and in the series with Huh-7 [10] was over 25 µM each time. Besides, the IC50 in the series with Caco-2 and in the series with Fibroblast [12] was over 25 µM in each case.
As for `c1ccc(Oc2ccc(-c3ccsc3)nn2)cc1`, the IC50 with NCI-H727 [13], in the series with HCT-116 [5], with HaCaT [7], in the series on MDA-MB-231 [8], in the series on PC-3 [9] and with Huh-7 [10] was over 25 µM each time. Moreover, the IC50 with Caco-2 and in the series with Fibroblast [12] was over 25 µM throughout.
Consider `CCN(CC)c1ccc(-c2ccc(C#N)cc2)nn1`, for which the IC50 in the series on NCI-H727 [13], in the series with HCT-116 [5], in the series on HaCaT [7], with MDA-MB-231 [8], in the series with PC-3 [9] and in the series with Huh-7 [10] was over 25 µM throughout. Moreover, the IC50 in the series on Caco-2 and with Fibroblast [12] was over 25 µM throughout.
Turning to `Oc1cccc(-c2nc(N3CCOCC3)c3oc4ncccc4c3n2)c1` [PI-103], the Activity with HCT-116 [1] was determined as 80%; in the series on Huh-7 [2] it was 40%; with HaCaT [3], 70%; in the series with MDA-MB-231 [4] it was 40%; with PC-3 [6] it was 60%. The IC50 in the series with NCI-H727 [13] is over 25 µM; with HCT-116 [5] it was 3 µM; with HaCaT [7], 2 µM; in the series with MDA-MB-231 [8] it was 8 µM; in the series on PC-3 [9] it was 1.2 µM; in the series with Huh-7 [10], 6 µM. Further, the IC50 in the series with Caco-2 is 0.8 µM; in the series on Fibroblast [12], over 25 µM.
With `COc1ccccc1-c1ccc(N2CCN(C)CC2)nn1`, the IC50 was over 25 µM in the series with NCI-H727 [13]; over 25 µM with HCT-116 [5]; over 25 µM with HaCaT [7]; over 25 µM in the series on MDA-MB-231 [8]; over 25 µM in the series on PC-3 [9]; 30 µM with Huh-7 [10]. For the same molecule, the IC50 is 50 µM in the series on Caco-2 and over 25 µM with Fibroblast [12]. This molecule gave an Activity in the series on Huh-7 [2] of 75%.
